Laboratory results published in patent US20240382471A1, “GLUCAGON-LIKE PEPTIDE-1 RECEPTOR MODULATORS AND USES THEREOF” (HEPAGENE THERAPEUTICS (HK) LIMITED, priority 2021, published 2024).

Target: GLP1R (Homo sapiens, UniProt P43220)
Assay: GLP1R cAMP assay (HTRF cAMP detection, agonist activity)
Type: cell-based
Parameters: host or cells: Flp-In-293
Conditions: Flp-In-293-GLP1R cells, 30 min at 37° C., read-out: EC50 (nM) Assay 1
Method: GLP1R-mediated agonist activity was determined with a cell-based functional assay utilizing an HTRF (Homogeneous Time-Resolved Fluorescene) cAMP detection kit that measures CAMP levels in the cell. Reagents and equipment used in the assay are listed below, followed by the protocol.
• 1) Cell Line: Flp-In-293-GLP1R (constructed by Pharmaron Beijing Co., Ltd) • 2) Complete Medium: DMEM+10% FBS+1×Penicillin-Streptomycin+200 μg/mL HB • 3) Assay Buffer: 1×HBSS+20 mM HEPES+0.1% BSA+500 μM IBMX
• a) Seed Flpin-293-GLP1R cells at 20,000 cells/well into 384 well assay plate (6007680-50, PE) using complete medium. • b) Prepare 4×compound working solution with assay buffer. • c) Add 5 μL 4×compound working solution into cell plate, incubate 30 min at 37° C. • d) Dilute Eu-cAMP tracer (1/50) with lysis buffer and add 10 μl/well to assay plate. • e) Dilute Ulight-anti-cAMP (1/150) with lysis buffer and add 10 μl/well to assay plate. • f) Incubate 1 h at RT. • g) Read the plate at wavelengths of 665 nm and 615 nm on Envision 2105 plate reader.
• 3.1% Activity is calculated as follow:
% Activity=100−(Signalcmpd−SignalAve_PC)/(SignalAve_VC−SignalAve_PC)×100. • 3.2 Calculate EC50 and Plot effect-dose curve of cmpds:
Y=Bottom+(Top−Bottom)/(1+10^((Log EC50−X)*Hill Slope)) • X: log of agonist concentration; Y: % Activity.

GLP1R, sequence (P43220 24-463, species assumed): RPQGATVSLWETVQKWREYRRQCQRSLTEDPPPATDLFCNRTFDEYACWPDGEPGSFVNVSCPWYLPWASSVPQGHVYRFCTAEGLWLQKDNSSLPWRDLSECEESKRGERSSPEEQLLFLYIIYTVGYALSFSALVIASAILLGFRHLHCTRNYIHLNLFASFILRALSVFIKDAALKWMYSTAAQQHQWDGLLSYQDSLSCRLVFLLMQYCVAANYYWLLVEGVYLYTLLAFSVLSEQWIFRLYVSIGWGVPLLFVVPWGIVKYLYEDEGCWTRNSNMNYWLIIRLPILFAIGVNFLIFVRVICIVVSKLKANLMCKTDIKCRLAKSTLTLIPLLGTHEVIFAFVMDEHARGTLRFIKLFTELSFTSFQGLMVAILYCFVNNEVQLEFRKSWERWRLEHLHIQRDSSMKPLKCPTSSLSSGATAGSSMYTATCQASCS

Row | Molecule | EC50 [nM]
1 | N#Cc1ccc(COc2ccnc(C34CCN(Cc5nc6ccc(C(=O)O)cc6n5C[C@@H]5CCO5)CC3C4)c2)c(F)c1 (single isomer, unassigned) [Compound 1-2-B] | > 4
2 | N#Cc1ccc(COc2ccnc(C34CCN(Cc5nc6ccc(C(=O)O)cc6n5C[C@@H]5CCO5)CC3C4)c2)c(F)c1 (single isomer, unassigned) [Compound 1-2-A] | > 4
3 | N#Cc1ccc(COc2cccc(N3C4CCC3CN(Cc3nc5ccc(C(=O)O)cc5n3CC3CCOC3)C4)n2)c(F)c1 (stereo not shown) [Compound 2-33, 2-[(8-{6-[(4-cyano-2-fluorophenyl)methoxy]pyridin-2-yl}-3,8-diazabicyclo[3.2.1]octan-3-yl)methyl]-3-(oxolan-3-ylmethyl)-1,3-benzodiazole-5-carboxylic acid] | > 4
4 | N#Cc1ccc(COc2cccc(N3CC4CCC(C3)N4Cc3nc4ccc(C(=O)O)cc4n3C[C@@H]3CCO3)n2)cc1 [Compound 2-4, 2-[(3-{6-[(4-cyanophenyl)methoxy]pyridin-2-yl}-3,8-diazabicyclo[3.2.1]octan-8-yl)methyl]-3-[(2S)-oxetan-2-ylmethyl]-1,3-benzodiazole-5-carboxylic acid] | > 4
5 | O=C(O)c1ccc2nc(CN3C4CC3CN(c3cccc(OCc5ccc(Cl)cc5F)n3)C4)n(C[C@@H]3CCO3)c2c1 [Compound 2-3, 2-((−3-(6-((4-chloro-2-fluorobenzyl)oxy)pyridin-2-yl)-3,6-diazabicyclo[3.1.1]heptan-6-yl)methyl)-1-(((S)-oxetan-2-yl)methyl)-1H-benzo[d]imidazole-6-carboxylic acid] | > 4
6 | O=C(O)c1ccc2nc(CN3CC4CN(c5cccc(OCc6ccc(F)cc6F)n5)CC4C3)n(C[C@@H]3CCO3)c2c1 (stereo partly drawn) [Compound 2-28, 2-[(5-{6-[(2,4-difluorophenyl)methoxy]pyridin-2-yl}-hexahydropyrrolo[3,4-c]pyrrol-2-yl)methyl]-3-[(2S)-oxetan-2-ylmethyl]-1,3-benzodiazole-5-carboxylic acid] | > 4
7 | O=C(O)c1ccc2nc(CN3C4CCC3CN(c3cccnc3OCc3ccc(Cl)cc3F)C4)n(C[C@@H]3CCO3)c2c1 [Compound 2-17, 2-[(3-{2-[(4-chloro-2-fluorophenyl)methoxy]pyridin-3-yl}-3,8-diazabicyclo[3.2.1]octan-8-yl)methyl]-3-[(2S)-oxetan-2-ylmethyl]-1,3-benzodiazole-5-carboxylic acid] | > 4
8 | O=C(O)c1ccc2nc(CN3CC4CCC(C3)N4c3cccc(OCc4ccccc4F)n3)n(C[C@@H]3CCO3)c2c1 [Compound 2-36, 2-((−8-(6-((2-fluorobenzyl)oxy)pyridin-2-yl)-3,8-diazabicyclo[3.2.1]octan-3-yl)methyl)-1-(((S)-oxetan-2-yl)methyl)-1H-benzo[d]imidazole-6-carboxylic acid] | > 4
9 | O=C(O)c1ccc2nc(CN3CC4CN(c5cccc(OCc6ccc(Cl)cc6F)n5)CC4C3)n(C[C@@H]3CCO3)c2c1 (stereo partly drawn) [Compound 2-27, 2-((5-(6-((4-chloro-2-fluorobenzyl)oxy)pyridin-2-yl)hexahydropyrrolo[3,4-c]pyrrol-2 (1H)-yl)methyl)-1-(((S)-oxetan-2-yl)methyl)-1H-benzo[d]imidazole-6-carboxylic acid] | > 4
10 | Cc1ccc(COc2cccc(N3CC4CCC(C3)N4Cc3nc4ccc(C(=O)O)cc4n3C[C@@H]3CCO3)n2)c(F)c1 [Compound 2-8, 2-[(3-{6-[(2-fluoro-4-methylphenyl)methoxy]pyridin-2-yl}-3,8-diazabicyclo[3.2.1]octan-8-yl)methyl]-3-[(2S)-oxetan-2-ylmethyl]-1,3-benzodiazole-5-carboxylic acid] | > 4
11 | 2-((3-(6-((4-cyano-2-fluorobenzyl)oxy)pyridin-2-yl)-3,8-diazabicyclo[3.2.1]octan-8-yl)methyl)-1-((oxetan-2-yl)methyl)-1H-benzo[d]imidazole-6-carboxylic acid [Compound 2-30] | 0.375
12 | O=C(O)c1ccc2nc(CN3C4CCC3CN(c3cccc(OCc5ccc(C(F)(F)F)cc5F)n3)C4)n(C[C@@H]3CCO3)c2c1 [Compound 2-15, 2-((−3-(6-((2-fluoro-4-(trifluoromethyl)benzyl)oxy)pyridin-2-yl)-3,8-diazabicyclo[3.2.1]octan-8-yl)methyl)-1-(((S)-oxetan-2-yl)methyl)-1H-benzo[d]imidazole-6-carboxylic acid] | > 4
13 | N#Cc1ccc(COc2cccc(N3CC4CN(Cc5nc6ccc(C(=O)O)cc6n5C[C@@H]5CCCO5)CC4C3)n2)c(F)c1 (stereo partly drawn) [Compound 2-23, 2-[(5-{6-[(4-cyano-2-fluorophenyl)methoxy]pyridin-2-yl}-hexahydropyrrolo[3,4-c]pyrrol-2-yl)methyl]-3-[(2S)-oxolan-2-ylmethyl]-1,3-benzodiazole-5-carboxylic acid] | > 4
14 | O=C(O)c1ccc2nc(CN3CC4CCC(C3)N4c3cccc(OCc4ccncc4)n3)n(C[C@@H]3CCO3)c2c1 [Compound 2-41, 3-[(2S)-oxetan-2-ylmethyl]-2-({8-[6-(pyridin-4-ylmethoxy)pyridin-2-yl]-3,8-diazabicyclo[3.2.1]octan-3-yl}methyl)-1,3-benzodiazole-5-carboxylic acid] | > 4
15 | N#Cc1ccc(COc2cccc(N3CC4CCC(C3)N4Cc3nc4ccc(C(=O)O)cc4n3CC3CCOC3)n2)c(F)c1 (stereo not shown) [Compound 2-11, 2-[(3-{6-[(4-cyano-2-fluorophenyl)methoxy]pyridin-2-yl}-3,8-diazabicyclo[3.2.1]octan-8-yl)methyl]-3-(oxolan-3-ylmethyl)-1,3-benzodiazole-5-carboxylic acid] | > 4

Continued, values first:

Row | EC50 [nM] | Molecule
16 | 0.346 | O=C(O)c1ccc2nc(CN3CC4CCC(C3)N4c3cccc(OCc4ccc(Cl)cc4F)n3)n(C[C@@H]3CCO3)c2c1 [Compound 2-39, 2-[(8-{6-[(4-chloro-2-fluorophenyl)methoxy]pyridin-2-yl}-3,8-diazabicyclo[3.2.1]octan-3-yl)methyl]-3-[(2S)-oxetan-2-ylmethyl]-1,3-benzodiazole-5-carboxylic acid]
17 | 1.05 | N#Cc1ccc(COc2cccc(C34CCN(Cc5nc6ccc(C(=O)O)cc6n5C[C@@H]5CCO5)CC3C4)c2)c(F)c1 (single isomer, unassigned) [Compound 1-9-B]
18 | 1.17 | N#Cc1ccc(COc2cccc(N3CC4CCC(C3)N4Cc3nc4ccc(C(=O)O)cc4n3C[C@@H]3CCO3)c2)c(F)c1 [Compound 2-18, 2-((−3-(3-((4-cyano-2-fluorobenzyl)oxy)phenyl)-3,8-diazabicyclo[3.2.1]octan-8-yl)methyl)-1-(((S)-oxetan-2-yl)methyl)-1H-benzo[d]imidazole-6-carboxylic acid]
19 | 2 | N#Cc1ccc(COc2cccc(N3CC4CN(Cc5nc6ccc(C(=O)O)cc6n5C[C@@H]5CCO5)CC4C3)n2)cc1 (stereo partly drawn) [Compound 2-22, 2-((5-(6-((4-cyanobenzyl)oxy)pyridin-2-yl)hexahydropyrrolo[3,4-c]pyrrol-2 (1H)-yl)methyl)-1-(((S)-oxetan-2-yl)methyl)-1H-benzo[d]imidazole-6-carboxylic acid]
20 | 1.5 | N#Cc1ccc(COc2cccc(N3C4CCC3CN(Cc3nc5ccc(C(=O)O)cc5n3Cc3ncco3)C4)n2)c(F)c1 [Compound 2-31, 2-[(8-{6-[(4-cyano-2-fluorophenyl)methoxy]pyridin-2-yl}-3,8-diazabicyclo[3.2.1]octan-3-yl)methyl]-3-(1,3-oxazol-2-ylmethyl)-1,3-benzodiazole-5-carboxylic acid]
21 | 0.458 | N#Cc1ccc(COc2cccc(N3C4CCC3CN(Cc3nc5ccc(C(=O)O)cc5n3C[C@@H]3CCO3)C4)n2)cc1 [Compound 2-38, 2-((8-(6-((4-cyanobenzyl)oxy)pyridin-2-yl)-3,8-diazabicyclo[3.2.1]octan-3-yl)methyl)-1-(((S)-oxetan-2-yl)methyl)-1H-benzo[d]imidazole-6-carboxylic acid]
22 | 0.003 | COc1cc(C#N)ccc1COc1cccc(C23CCN(Cc4nc5ccc(C(=O)O)cc5n4C[C@@H]4CCO4)CC2C3)n1 (stereo partly drawn) [Compound 1-6, 2-((6-(6-((4-cyano-2-methoxybenzyl)oxy)pyridin-2-yl)-3-azabicyclo[4.1.0]heptan-3-yl)methyl)-1-(((S)-oxetan-2-yl)methyl)-1H-benzo[d]imidazole-6-carboxylic acid]
23 | 1.7 | N#Cc1ccc(COc2cccc(N3CC4CN(Cc5nc6ccc(C(=O)O)cc6n5Cc5cocn5)CC4C3)n2)c(F)c1 (stereo not shown) [Compound 2-25, 2-[(5-{6-[(4-cyano-2-fluorophenyl)methoxy]pyridin-2-yl}-hexahydropyrrolo[3,4-c]pyrrol-2-yl)methyl]-3-(1,3-oxazol-4-ylmethyl)-1,3-benzodiazole-5-carboxylic acid]
24 | 1.84 | N#Cc1ccc(COc2cccc(N3CC4CN(Cc5nc6ccc(C(=O)O)cc6n5C[C@@H]5CCO5)CC4C3)n2)c(F)c1 (stereo partly drawn) [Compound 2-20, 2-[(5-{6-[(4-cyano-2-fluorophenyl)methoxy]pyridin-2-yl}-hexahydropyrrolo[3,4-c]pyrrol-2-yl)methyl]-3-[(2S)-oxetan-2-ylmethyl]-1,3-benzodiazole-5-carboxylic acid]
25 | 1.01 | N#Cc1ccc(COc2cccc(C34CCN(Cc5nc6ccc(C(=O)O)cc6n5C[C@@H]5CCO5)CC3C4)c2)c(F)c1 (single isomer, unassigned) [Compound 1-9-A]
